Laboratory results from PubChem BioAssay AID1259407 (Chemical Carcinogenesis Research Information System (CCRIS), 2018).
Active and inactive are the calls of the source. No rule for the calls is given here.

Test system: CCRIS mutagenicity, Ames/micronucleus/aberration tests
Assay: CCRIS mutagenicity studies

Nc1cccc(N)c1
mutagenic call (Test System: AMES SALMONELLA TYPHIMURIUM, Strain/Indicator: TA100, Metabolic Activation: S-9, Method: PREINCUBATION): active; positive | mutagenic call (Test System: AMES SALMONELLA TYPHIMURIUM, Strain/Indicator: TA1535, Metabolic Activation: HAMSTER, LIVER, S-9, AROCLOR 1254 (10%), Method: PREINCUBATION): inactive; negative | mutagenic call (Test System: AMES SALMONELLA TYPHIMURIUM, Strain/Indicator: TA1535, Metabolic Activation: HAMSTER, LIVER, S-9, AROCLOR 1254 (30%), Method: PREINCUBATION): active; positive | mutagenic call (Test System: AMES SALMONELLA TYPHIMURIUM, Strain/Indicator: TA1535, Metabolic Activation: NONE, Method: PREINCUBATION): inactive; negative | mutagenic call (Test System: AMES SALMONELLA TYPHIMURIUM, Strain/Indicator: TA1535, Metabolic Activation: RAT, LIVER, S-9, AROCLOR 1254 (5%), Method: PREINCUBATION): active; positive | mutagenic call (Test System: AMES SALMONELLA TYPHIMURIUM, Strain/Indicator: TA1535, Metabolic Activation: RAT, LIVER, S-9, AROCLOR 1254 (30%), Method: PREINCUBATION): inactive; negative | mutagenic call (Test System: AMES SALMONELLA TYPHIMURIUM, Strain/Indicator: TA1537, Metabolic Activation: RAT, LIVER, S-9, AROCLOR 1254 (4 OR 10%), Method: STANDARD PLATE): active; positive | mutagenic call (Test System: AMES SALMONELLA TYPHIMURIUM, Strain/Indicator: TA1538, Metabolic Activation: RAT, LIVER, S-9, AROCLOR 1254 (4 OR 10%), Method: STANDARD PLATE): active; positive | mutagenic call (Test System: AMES SALMONELLA TYPHIMURIUM, Strain/Indicator: TA1538, Metabolic Activation: RAT, LIVER, S-9, PHENOBARBITAL, Method: STANDARD PLATE): active; positive | mutagenic call (Test System: AMES SALMONELLA TYPHIMURIUM, Strain/Indicator: YG1021, Metabolic Activation: RAT, LIVER, S-9, PHENOBARBITAL AND 5,6-BENZOFLAVONE, Method: PREINCUBATION): active; positive | mutagenic call (Test System: AMES SALMONELLA TYPHIMURIUM, Strain/Indicator: YG1024, Metabolic Activation: CELL-FREE PLANT MIXTURE TX1MX, Method: PREINCUBATION): active; positive | mutagenic call (Test System: AMES SALMONELLA TYPHIMURIUM, Strain/Indicator: YG1024, Metabolic Activation: NONE, Method: PREINCUBATION): inactive; negative | mutagenic call (Test System: AMES SALMONELLA TYPHIMURIUM, Strain/Indicator: YG1024, Metabolic Activation: NONE, Method: STANDARD PLATE): inactive; negative | mutagenic call (Test System: AMES SALMONELLA TYPHIMURIUM, Strain/Indicator: YG1024, Metabolic Activation: PLANT (PERSEA AMERICANA) S-117, Method: STANDARD PLATE): active; positive | mutagenic call (Test System: AMES SALMONELLA TYPHIMURIUM, Strain/Indicator: YG1024, Metabolic Activation: PLANT (ZEA MAYS) S-9, Method: STANDARD PLATE): active; positive | mutagenic call (Test System: AMES SALMONELLA TYPHIMURIUM, Strain/Indicator: YG1024, Metabolic Activation: RAT LIVER S-9, AROCLOR 1254, Method: STANDARD PLATE): active; positive | mutagenic call (Test System: AMES SALMONELLA TYPHIMURIUM, Strain/Indicator: YG1024, Metabolic Activation: RAT LIVER S-9, Method: STANDARD PLATE): active; positive | mutagenic call (Test System: AMES SALMONELLA TYPHIMURIUM, Strain/Indicator: YG1024, Metabolic Activation: RAT, LIVER, S-9, PHENOBARBITAL AND 5,6-BENZOFLAVONE, Method: PREINCUBATION): active; positive | mutagenic call (Test System: AMES SALMONELLA TYPHIMURIUM, Strain/Indicator: YG1024, Metabolic Activation: TOBACCO, TX1 CELLS, Method: PREINCUBATION): active; positive | mutagenic call (Test System: AMES SALMONELLA TYPHIMURIUM, Strain/Indicator: YG1029, Metabolic Activation: NONE, Method: STANDARD PLATE): inactive; negative | mutagenic call (Test System: AMES SALMONELLA TYPHIMURIUM, Strain/Indicator: YG1029, Metabolic Activation: PLANT (PERSEA AMERICANA) S-117, Method: STANDARD PLATE): inactive; negative | mutagenic call (Test System: AMES SALMONELLA TYPHIMURIUM, Strain/Indicator: YG1041, Metabolic Activation: RAT, LIVER, S-9, PHENOBARBITAL AND 5,6-BENZOFLAVONE, Method: PREINCUBATION): active; positive | mutagenic call (Test System: Ames Salmonella typhimurium, Strain/Indicator: TA98, Metabolic Activation: None, Method: Preincubation): inactive; negative | mutagenic call (Test System: Ames Salmonella typhimurium, Strain/Indicator: TA98, Metabolic Activation: Rat, Liver, S9, Sodium phenobarbital and 5,6-benzoflavone (10%), Method: Preincubation): active; positive | mutagenic call (Test System: Ames Salmonella typhimurium, Strain/Indicator: TA100, Metabolic Activation: None, Method: Preincubation): inactive; negative | mutagenic call (Test System: Ames Salmonella typhimurium, Strain/Indicator: TA100, Metabolic Activation: Rat, Liver, S9, Sodium phenobarbital and 5,6-benzoflavone (10%), Method: Preincubation): inactive; negative | mutagenic call (Test System: Ames Salmonella typhimurium, Strain/Indicator: TA100, Metabolic Activation: Rat, Liver, S9, Sodium phenobarbital and 5,6-benzoflavone, Method: Preincubation): inactive; positive (repeat assay negative) | mutagenic call (Test System: Ames Salmonella typhimurium, Strain/Indicator: TA1535, Metabolic Activation: None, Method: Preincubation): inactive; negative | mutagenic call (Test System: Ames Salmonella typhimurium, Strain/Indicator: TA1535, Metabolic Activation: Rat, Liver, S9, Sodium phenobarbital and 5,6-benzoflavone (10%), Method: Preincubation): inactive; negative | mutagenic call (Test System: Ames Salmonella typhimurium, Strain/Indicator: TA1537, Metabolic Activation: None, Method: Preincubation): inactive; negative | mutagenic call (Test System: Ames Salmonella typhimurium, Strain/Indicator: TA1537, Metabolic Activation: Rat, Liver, S9, Sodium phenobarbital and 5,6-benzoflavone (10%), Method: Preincubation): active; positive | mutagenic call (Test System: E. coli, Strain/Indicator: WP2uvrA/pKM101, Metabolic Activation: None, Method: Preincubation): inactive; negative | mutagenic call (Test System: E. coli, Strain/Indicator: WP2uvrA/pKM101, Metabolic Activation: Rat, Liver, S9, Sodium phenobarbital and 5,6-benzoflavone (10%), Method: Preincubation): inactive; negative | mutagenic call (Test System: UDS RODENT HEPATOCYTES, Strain/Indicator: THY INCORP (NON-S-PHASE), Metabolic Activation: NONE, Method: AUTORADIOGRAPHY): inactive; negative
